Source: ChEMBL document CHEMBL3044736, “Synthesis, characterization, solvatochromic properties, and antimicrobial evaluation of 5-acetyl-2-thioxo-dihydro-pyrimidine-4,6-dione-based chalcones” (2013)
≈ marks a conversion by molar mass, not a printed value.

Experiments:
Assay type in all cases: functional
Penicillium [1] = test: Antimicrobial activity against Penicillium wild strain assessed as diameter of growth inhibition zone at 250 ug/ml after 48-96 hr by agar cup diffusion method; settings: read-out: DIZ
Penicillium [2] = test: Antimicrobial activity against Penicillium wild strain assessed as diameter of growth inhibition zone at 100 ug/ml after 48-96 hr by agar cup diffusion method; settings: read-out: DIZ
Trichophyton rubrum [3] = test: Antimicrobial activity against Trichophyton rubrum MTCC 296 assessed as diameter of growth inhibition zone at 100 ug/ml after 48-96 hr by agar cup diffusion method; settings: read-out: DIZ
Aspergillus clavatus [4] = test: Antimicrobial activity against Aspergillus clavatus MTCC 1323 assessed as diameter of growth inhibition zone at 100 ug/ml after 48-96 hr by agar cup diffusion method; settings: read-out: DIZ
Candida albicans [5] = test: Antimicrobial activity against Candida albicans MTCC 227 assessed as diameter of growth inhibition zone at 100 ug/ml after 48-96 hr by agar cup diffusion method; settings: read-out: DIZ
Penicillium [6] = test: Antimicrobial activity against Penicillium wild strain assessed as diameter of growth inhibition zone at 50 ug/ml after 48-96 hr by agar cup diffusion method; settings: read-out: DIZ
Trichophyton rubrum [7] = test: Antimicrobial activity against Trichophyton rubrum MTCC 296 assessed as diameter of growth inhibition zone at 50 ug/ml after 48-96 hr by agar cup diffusion method; settings: read-out: DIZ
Aspergillus clavatus [8] = test: Antimicrobial activity against Aspergillus clavatus MTCC 1323 assessed as diameter of growth inhibition zone at 50 ug/ml after 48-96 hr by agar cup diffusion method; settings: read-out: DIZ
Candida albicans [9] = test: Antimicrobial activity against Candida albicans MTCC 227 assessed as diameter of growth inhibition zone at 50 ug/ml after 48-96 hr by agar cup diffusion method; settings: read-out: DIZ
Penicillium [10] = test: Antimicrobial activity against Penicillium wild strain assessed as diameter of growth inhibition zone at 25 ug/ml after 48-96 hr by agar cup diffusion method; settings: read-out: DIZ
Trichophyton rubrum [11] = test: Antimicrobial activity against Trichophyton rubrum MTCC 296 assessed as diameter of growth inhibition zone at 25 ug/ml after 48-96 hr by agar cup diffusion method; settings: read-out: DIZ
Aspergillus clavatus [12] = test: Antimicrobial activity against Aspergillus clavatus MTCC 1323 assessed as diameter of growth inhibition zone at 25 ug/ml after 48-96 hr by agar cup diffusion method; settings: read-out: DIZ
Candida albicans [13] = test: Antimicrobial activity against Candida albicans MTCC 227 assessed as diameter of growth inhibition zone at 25 ug/ml after 48-96 hr by agar cup diffusion method; settings: read-out: DIZ
Penicillium [14] = test: Antimicrobial activity against Penicillium wild strain by agar cup diffusion method
Aspergillus clavatus [15] = test: Antimicrobial activity against Aspergillus clavatus MTCC 1323 by agar cup diffusion method
Pseudomonas aeruginosa [16] = test: Antimicrobial activity against Pseudomonas aeruginosa MTCC 1688 assessed as diameter of growth inhibition zone at 25 ug/ml after 18-24 hr by agar cup diffusion method; settings: read-out: DIZ
Escherichia coli [17] = test: Antimicrobial activity against Escherichia coli MTCC 443 assessed as diameter of growth inhibition zone at 25 ug/ml after 18-24 hr by agar cup diffusion method; settings: read-out: DIZ
Staphylococcus aureus [18] = test: Antimicrobial activity against Staphylococcus aureus MTCC 96 assessed as diameter of growth inhibition zone at 25 ug/ml after 18-24 hr by agar cup diffusion method; settings: read-out: DIZ
Streptococcus pyogenes [19] = test: Antimicrobial activity against Streptococcus pyogenes MTCC 442 assessed as diameter of growth inhibition zone at 25 ug/ml after 18-24 hr by agar cup diffusion method; settings: read-out: DIZ
Klebsiella pneumoniae [20] = test: Antimicrobial activity against Klebsiella pneumoniae MTCC 109 by agar cup diffusion method
Escherichia coli [21] = test: Antimicrobial activity against Escherichia coli MTCC 443 by agar cup diffusion method
Pseudomonas aeruginosa [22] = test: Antimicrobial activity against Pseudomonas aeruginosa MTCC 1688 by agar cup diffusion method
Staphylococcus aureus [23] = test: Antimicrobial activity against Staphylococcus aureus MTCC 96 by agar cup diffusion method
Streptococcus pyogenes [24] = test: Antimicrobial activity against Streptococcus pyogenes MTCC 442 by agar cup diffusion method
Trichophyton rubrum [25] = test: Antimicrobial activity against Trichophyton rubrum MTCC 296 by agar cup diffusion method
Candida albicans [26] = test: Antimicrobial activity against Candida albicans MTCC 227 by agar cup diffusion method
Klebsiella pneumoniae [27] = test: Antimicrobial activity against Klebsiella pneumoniae MTCC 109 assessed as diameter of growth inhibition zone at 250 ug/ml after 18-24 hr by agar cup diffusion method; settings: read-out: DIZ
Pseudomonas aeruginosa [28] = test: Antimicrobial activity against Pseudomonas aeruginosa MTCC 1688 assessed as diameter of growth inhibition zone at 250 ug/ml after 18-24 hr by agar cup diffusion method; settings: read-out: DIZ
Escherichia coli [29] = test: Antimicrobial activity against Escherichia coli MTCC 443 assessed as diameter of growth inhibition zone at 250 ug/ml after 18-24 hr by agar cup diffusion method; settings: read-out: DIZ
Staphylococcus aureus [30] = test: Antimicrobial activity against Staphylococcus aureus MTCC 96 assessed as diameter of growth inhibition zone at 250 ug/ml after 18-24 hr by agar cup diffusion method; settings: read-out: DIZ
Streptococcus pyogenes [31] = test: Antimicrobial activity against Streptococcus pyogenes MTCC 442 assessed as diameter of growth inhibition zone at 250 ug/ml after 18-24 hr by agar cup diffusion method; settings: read-out: DIZ
Klebsiella pneumoniae [32] = test: Antimicrobial activity against Klebsiella pneumoniae MTCC 109 assessed as diameter of growth inhibition zone at 100 ug/ml after 18-24 hr by agar cup diffusion method; settings: read-out: DIZ
Pseudomonas aeruginosa [33] = test: Antimicrobial activity against Pseudomonas aeruginosa MTCC 1688 assessed as diameter of growth inhibition zone at 100 ug/ml after 18-24 hr by agar cup diffusion method; settings: read-out: DIZ
Escherichia coli [34] = test: Antimicrobial activity against Escherichia coli MTCC 443 assessed as diameter of growth inhibition zone at 100 ug/ml after 18-24 hr by agar cup diffusion method; settings: read-out: DIZ
Staphylococcus aureus [35] = test: Antimicrobial activity against Staphylococcus aureus MTCC 96 assessed as diameter of growth inhibition zone at 100 ug/ml after 18-24 hr by agar cup diffusion method; settings: read-out: DIZ
Streptococcus pyogenes [36] = test: Antimicrobial activity against Streptococcus pyogenes MTCC 442 assessed as diameter of growth inhibition zone at 100 ug/ml after 18-24 hr by agar cup diffusion method; settings: read-out: DIZ
Klebsiella pneumoniae [37] = test: Antimicrobial activity against Klebsiella pneumoniae MTCC 109 assessed as diameter of growth inhibition zone at 50 ug/ml after 18-24 hr by agar cup diffusion method; settings: read-out: DIZ
Pseudomonas aeruginosa [38] = test: Antimicrobial activity against Pseudomonas aeruginosa MTCC 1688 assessed as diameter of growth inhibition zone at 50 ug/ml after 18-24 hr by agar cup diffusion method; settings: read-out: DIZ
Escherichia coli [39] = test: Antimicrobial activity against Escherichia coli MTCC 443 assessed as diameter of growth inhibition zone at 50 ug/ml after 18-24 hr by agar cup diffusion method; settings: read-out: DIZ
Staphylococcus aureus [40] = test: Antimicrobial activity against Staphylococcus aureus MTCC 96 assessed as diameter of growth inhibition zone at 50 ug/ml after 18-24 hr by agar cup diffusion method; settings: read-out: DIZ
Streptococcus pyogenes [41] = test: Antimicrobial activity against Streptococcus pyogenes MTCC 442 assessed as diameter of growth inhibition zone at 50 ug/ml after 18-24 hr by agar cup diffusion method; settings: read-out: DIZ
Klebsiella pneumoniae [42] = test: Antimicrobial activity against Klebsiella pneumoniae MTCC 109 assessed as diameter of growth inhibition zone at 25 ug/ml after 18-24 hr by agar cup diffusion method; settings: read-out: DIZ
Trichophyton rubrum [43] = test: Antimicrobial activity against Trichophyton rubrum MTCC 296 assessed as diameter of growth inhibition zone at 250 ug/ml after 48-96 hr by agar cup diffusion method; settings: read-out: DIZ
Aspergillus clavatus [44] = test: Antimicrobial activity against Aspergillus clavatus MTCC 1323 assessed as diameter of growth inhibition zone at 250 ug/ml after 48-96 hr by agar cup diffusion method; settings: read-out: DIZ
Candida albicans [45] = test: Antimicrobial activity against Candida albicans MTCC 227 assessed as diameter of growth inhibition zone at 250 ug/ml after 48-96 hr by agar cup diffusion method; settings: read-out: DIZ

O=C(/C=C/c1ccc2ccccc2c1)C1C(=O)NC(=S)NC1=O
zone of inhibition at 250 µg/mL (Penicillium [1]): 23 mm | zone of inhibition at 100 µg/mL (Penicillium [2]): 21 mm | zone of inhibition at 100 µg/mL (Trichophyton rubrum [3]): 22 mm | zone of inhibition at 100 µg/mL (Aspergillus clavatus [4]): 25 mm | zone of inhibition at 100 µg/mL (Candida albicans [5]): 24 mm | zone of inhibition at 50 µg/mL (Penicillium [6]): 18 mm | zone of inhibition at 50 µg/mL (Trichophyton rubrum [7]): 20 mm | zone of inhibition at 50 µg/mL (Aspergillus clavatus [8]): 20 mm | zone of inhibition at 50 µg/mL (Candida albicans [9]): 22 mm | zone of inhibition at 25 µg/mL (Penicillium [10]): 18 mm | zone of inhibition at 25 µg/mL (Trichophyton rubrum [11]): 18 mm | zone of inhibition at 25 µg/mL (Aspergillus clavatus [12]): 18 mm | zone of inhibition at 25 µg/mL (Candida albicans [13]): 22 mm | MFC (Penicillium [14]): 1000 µg/mL (≈ 3080 µM) | MIC (Penicillium [14]): 1000 µg/mL (≈ 3080 µM) | MFC (Aspergillus clavatus [15]): > 1000 µg/mL | MIC (Aspergillus clavatus [15]): > 1000 µg/mL | zone of inhibition at 25 µg/mL (Pseudomonas aeruginosa [16]): 10 mm | zone of inhibition at 25 µg/mL (Escherichia coli [17]): 14 mm | zone of inhibition at 25 µg/mL (Staphylococcus aureus [18]): 10 mm | zone of inhibition at 25 µg/mL (Streptococcus pyogenes [19]): 14 mm | MBC (Klebsiella pneumoniae [20]): 200 µg/mL (≈ 617 µM) | MIC (Klebsiella pneumoniae [20]): 125 µg/mL (≈ 385 µM) | MBC (Escherichia coli [21]): 500 µg/mL (≈ 1540 µM) | MIC (Escherichia coli [21]): 250 µg/mL (≈ 771 µM) | MBC (Pseudomonas aeruginosa [22]): 125 µg/mL (≈ 385 µM) | MIC (Pseudomonas aeruginosa [22]): 100 µg/mL (≈ 308 µM) | MBC (Staphylococcus aureus [23]): 250 µg/mL (≈ 771 µM) | MIC (Staphylococcus aureus [23]): 200 µg/mL (≈ 617 µM) | MBC (Streptococcus pyogenes [24]): 250 µg/mL (≈ 771 µM) | MIC (Streptococcus pyogenes [24]): 250 µg/mL (≈ 771 µM) | MFC (Trichophyton rubrum [25]): 1000 µg/mL (≈ 3080 µM) | MIC (Trichophyton rubrum [25]): 1000 µg/mL (≈ 3080 µM) | MFC (Candida albicans [26]): > 1000 µg/mL | MIC (Candida albicans [26]): > 1000 µg/mL | zone of inhibition at 250 µg/mL (Klebsiella pneumoniae [27]): 20 mm | zone of inhibition at 250 µg/mL (Pseudomonas aeruginosa [28]): 19 mm | zone of inhibition at 250 µg/mL (Escherichia coli [29]): 21 mm | zone of inhibition at 250 µg/mL (Staphylococcus aureus [30]): 19 mm | zone of inhibition at 250 µg/mL (Streptococcus pyogenes [31]): 21 mm | zone of inhibition at 100 µg/mL (Klebsiella pneumoniae [32]): 18 mm | zone of inhibition at 100 µg/mL (Pseudomonas aeruginosa [33]): 15 mm | zone of inhibition at 100 µg/mL (Escherichia coli [34]): 18 mm | zone of inhibition at 100 µg/mL (Staphylococcus aureus [35]): 15 mm | zone of inhibition at 100 µg/mL (Streptococcus pyogenes [36]): 18 mm | zone of inhibition at 50 µg/mL (Klebsiella pneumoniae [37]): 15 mm | zone of inhibition at 50 µg/mL (Pseudomonas aeruginosa [38]): 12 mm | zone of inhibition at 50 µg/mL (Escherichia coli [39]): 16 mm | zone of inhibition at 50 µg/mL (Staphylococcus aureus [40]): 12 mm | zone of inhibition at 50 µg/mL (Streptococcus pyogenes [41]): 16 mm | zone of inhibition at 25 µg/mL (Klebsiella pneumoniae [42]): 14 mm | zone of inhibition at 250 µg/mL (Trichophyton rubrum [43]): 23 mm | zone of inhibition at 250 µg/mL (Aspergillus clavatus [44]): 25 mm | zone of inhibition at 250 µg/mL (Candida albicans [45]): 25 mm
